The record followed here is patent publication US6777405B2, “Detection and treatment of duplex polynucleotide damage” (California Institute of Technology, priority 1997, dated 2004).

The test system of test [1] is DNA duplexes having a single base pair mismatch (SEQ ID NO:1/SEQ ID NO:2). Kind of test: Photocleavage of 17-mer DNA duplexes with a single base pair mismatch (365 nm, PAGE). Format: biochemical. The procedure: A set of DNA duplexes was prepared having the following sequence:
3′-[…]-5′(SEQ ID NO:1)
5′-[…]-3′(SEQ ID NO:2),
where X and Y were varied to provide A-T, G-C, and the following mismatches: C-C, C-A, T-T, A-A, T-C, T-G, G-A, and G-G. All oligonucleotides were prepared using standard phosphoramidite chemistry, and were purified by reverse phase HPLC. The oligonucleotides were 5′ end-labeled with γ-^32P ATP (Dupont-NEN) and T4 polynucleotide kinase (New England Biolabs).
Duplexes (10 μM) were incubated with Δ or Λ [Rh(bpy)2(chrysi)]^3+(1 μM in 50 mM Tris, 20 mM NaOAc, 18 mM NaCl, pH 7.0) for 11 minutes, then irradiated for 13 min at 365 nm using an Oriel HgXe arc lamp. The products were analyzed by PAGE (20%, denaturing), imaged using a Molecular Dynamics Phosphorimager. The lanes labeled A+G and C+T are standard Maxam-Gilbert sequencing reactions: the remaining columns show cleavage (or lack of cleavage) for each tested mismatch with each enantiomer. […] Here, cleavage occurred to the 3′ side of the mismatch site. […] Unlike the other recognized mismatches, the cleavage 3′ to C-A results in two products having different gel mobility, possibly the result of chemically different polymer termini. The cleavage of A-A was also distinctive.

Test [2] has as its system hairpin DNA oligonucleotide (SEQ ID NO:3) having a single C-C mismatch. The experiment in a line: Photocleavage titration on hairpin DNA with single C-C mismatch. Particulars: 313 or 365 nm, Rh complex at 0.10× DNA concentration, single binding site model fit. The procedure:
A hairpin DNA oligonucleotide was synthesized with the sequence:
5′-[…]-3′ (SEQ ID NO:3), having a single C-C mismatch. The hairpin was photocleaved as described in Example 2 above with Δ[Rh(bpy)2(chrysi)]^3+ at either 313 nm or 365 nm for 7.5 to 15 min. Hairpin DNA concentration was varied from 3×10^−10 M to 1×10^−4 M, with the Rh complex used at 0.10× the DNA concentration. The cleavage products were eluted through 20% denaturing polyacrylamide gels, and analyzed using a Molecular Dynamics Phosphorimager and ImageQuant software. Cleavage was observed 3′ to the C-C mismatch on both sides of the hairpin: only the cleavage band closest to the end label was quantitated. Data from multiple trials was normalized (open circles) and fit to a standard single binding site binding model (solid line).
(§1) The thermodynamic binding constant was determined to be 8.4 (±1.0)×10^5 M^−1. Similar DNA photocleavage titrations at other mismatch sites have measured the affinity of Δ [Rh(bpy)2(chrysi)]^3+ between 1×10^7 and 3×10^5 M^−1. To examine the level of selectivity the average binding constant of Δ[Rh(bpy)2(chrysi)]^3+ to B-form DNA was also determined. Photocleavage on a 33mer correctly matched hairpin and competitive titration with unlabeled 25mer B-DNA yielded a value of 4 (±2)×10^4 M^−1 for the average non-specific binding affinity.

Test [3] deals with mismatch-sequence context combinations in DNA duplexes. The experiment in a line: Photocleavage with systematically changed bases 5′ and 3′ of the mismatch site. The test is classed as biochemical. Conditions: flanking bases 5′ and 3′ of the mismatch systematically changed.
The test system of test [4] is B-form DNA (33mer correctly matched hairpin, 25mer B-DNA). The experiment in a line: Photocleavage on correctly matched hairpin and competitive titration with unlabeled B-DNA. The test is classed as binding. As to the method:
as §1

Where [5] appears, read: duplex 10 μM, complex 1 μM, 13 min at 365 nm.
Setting [6] is: duplex 10 μM, complex 1 μM, 13 min at 365 nm, compared with C-C.

On to “Δ-[Rh(bpy)2(chrysi)]Cl3 [Δ[Rh(bpy)2(chrysi)]^3+]”, for which, in test [1] (setting [5]), the “photocleavage at A-A mismatch, base 3′ to the site” value is on record as “strong cleavage” and the “photocleavage at the A-A site itself” value is listed as “a small amount of cleavage”. For the same substance, in test [1] (duplex 10 μM, complex 1 μM, 13 min at 365 nm, at the mismatched C and the base 3′ to the mismatch site), the “photocleavage at C-A mismatch” value was “Strong cutting”. Moreover, in test [1] (setting [6]), the “photocleavage at T-C mismatch” value is “less intense cleavage” and the “photocleavage at T-T mismatch” value was “less intense cleavage”. The “photocleavage at C-C mismatch” value in test [1] (duplex 10 μM, complex 1 μM, pH 7.0, irradiated 13 min at 365 nm, cleavage to the 3′ side of the mismatch site) is on record as “strongest cleavage intensity”. Also, the thermodynamic binding constant in test [2] was 8.4 (±1.0)×10^5 M^−1. Further, in test [3], the “mismatch-sequence context combinations at which photocleavage was observed (count)” value was 83 of 104 and the “mismatch-sequence context combinations at which photocleavage was observed (percent)” value stood at 80%. Further, the “average non-specific binding affinity” value in test [4] was 4 (±2)×10^4 M^−1.

Λ-[Rh(bpy)2(chrysi)]Cl3 [Λ enantiomer]: the “mismatch pairs cleaved among all tested pairs” value in test [1] (A-T, G-C, C-C, C-A, T-T, A-A, T-C, T-G, G-A, G-G tested) is listed as “The A-A mismatch is the only pair cleaved”. The “photocleavage at A-A mismatch relative to the other enantiomer” value in test [1] (setting [5]) was “weaker cleavage”.
